The supplement of paper PMC9663587

How the values were obtained:
[1] = compound: T1, CCOc1cc2ncc(C#N)c(Nc3ccc(OCc4ccccn4)c(Cl)c3)c2cc1NC(=O)/C=C/CN(C)C [Neratinib/HKI272]; assay: GR value, 72 h; higher = faster growth (1 = untreated, <0 = killing);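 further: breast cancer and non-malignant breast epithelial lines, nine half-log doses, viable cells counted by Hoechst and LIVE/DEAD dye imaging versus time-zero plates and DMSO controls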
[2] = compound: T2, CN1CC[C@H](c2c(O)cc(O)c3c(=O)cc(-c4ccccc4Cl)oc23)[C@H](O)C1 [Flavopiridol]; assay: as above
[3] = compound: CCc1cnn2c(NCc3ccc[n+]([O-])c3)cc(N3CCCC[C@H]3CCO)nc12; assay: increase in dead-cell fraction, 72 h; higher = more death;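 further: breast cancer cell lines in 384-well plates, stained with Hoechst plus LIVE/DEAD far red dye and imaged, cells above an LDR intensity threshold counted dead, Hoechst-negative corpses included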
[4] = compound: CCN1CCN(Cc2ccc(Nc3ncc(F)c(-c4cc(F)c5nc(C)n(C(C)C)c5c4)n3)nc2)CC1; assay: as above
[5] = compound: CN(C)C/C=C/C(=O)Nc1ccc(C(=O)N2CCC[C@@H](Nc3ncc(Cl)c(-c4c[nH]c5ccccc45)n3)C2)cc1 [THZ531]; assay: as above
[6] = compound: C=CC(=O)Nc1ccc(C(=O)Nc2[nH]nc3c2CN(C(=O)N[C@H](CN(C)C)c2ccccc2)C3(C)C)cc1 [YKL-5-124]; assay: as above
[7] = compound: T1, Neratinib/HKI272; assay: as above
[8] = compound: CN(C)C(=O)c1cc2cnc(Nc3ccc(N4CCNCC4)cn3)nc2n1C1CCCC1 [LEE011/Ribociclib]; assay: as above
[9] = compound: T2, Flavopiridol; assay: as above
[10] = compound: CN(C)C/C=C/C(=O)Nc1ccc(C(=O)Nc2cccc(Nc3ncc(Cl)c(-c4c[nH]c5ccccc45)n3)c2)cc1 [THZ1]; assay: as above
[11] = compound: CC(=O)c1c(C)c2cnc(Nc3ccc(N4CCNCC4)cn3)nc2n(C2CCCC2)c1=O; assay: as above
[12] = compound: CC(=O)c1c(C)c2cnc(Nc3ccc(N4CCN(CCOCCOCCOCCNC(=O)COc5cccc6c5C(=O)N(C5CCC(=O)NC5=O)C6=O)CC4)cn3)nc2n(C2CCCC2)c1=O [BSJ-03-123]; assay: as above

**Q.** Which results are given for ZR751?
**A.** GR value ([1]; 0.0003162 µM): 1.01 GR; GR value ([1]; 0.001 µM): 1.03 GR; GR value ([1]; 0.003162 µM): 0.972 GR; GR value ([1]; 0.01 µM): 1.02 GR; GR value ([1]; 0.03162 µM): 0.92 GR; GR value ([1]; 0.1 µM): 0.864 GR; GR value ([1]; 0.3162 µM): 0.741 GR; GR value ([1]; 1 µM): 0.757 GR; GR value ([1]; 3.162 µM): 0.733 GR; GR value ([2]; 0.0001 µM): 0.988 GR; GR value ([2]; 0.0003162 µM): 0.993 GR; GR value ([2]; 0.001 µM): 0.995 GR; GR value ([2]; 0.003162 µM): 0.915 GR; GR value ([2]; 0.01 µM): 0.952 GR; GR value ([2]; 0.03162 µM): 0.988 GR; GR value ([2]; 0.1 µM): 0.935 GR; GR value ([2]; 0.3162 µM): 0.577 GR; GR value ([2]; 1 µM): -0.371 GR; increase in dead-cell fraction ([3]; 0.0001 µM): -0.0029; increase in dead-cell fraction ([3]; 0.0003162 µM): -0.0028; increase in dead-cell fraction ([3]; 0.001 µM): -0.0042; increase in dead-cell fraction ([3]; 0.003162 µM): 0.0003; increase in dead-cell fraction ([3]; 0.01 µM): -0.0059; increase in dead-cell fraction ([3]; 0.03162 µM): 0.008; increase in dead-cell fraction ([3]; 0.1 µM): 0.22; increase in dead-cell fraction ([3]; 0.3162 µM): 0.21; increase in dead-cell fraction ([3]; 1 µM): 0.202; increase in dead-cell fraction ([4]; 0.001 µM): 0.0013; increase in dead-cell fraction ([4]; 0.003162 µM): 0.0092; increase in dead-cell fraction ([4]; 0.01 µM): 0.0042; increase in dead-cell fraction ([4]; 0.03162 µM): 0.0075; increase in dead-cell fraction ([4]; 0.1 µM): 0.0148; increase in dead-cell fraction ([4]; 0.3162 µM): 0.021; increase in dead-cell fraction ([4]; 1 µM): 0.0189; increase in dead-cell fraction ([4]; 3.162 µM): 0.0151; increase in dead-cell fraction ([4]; 10 µM): 0.0172; increase in dead-cell fraction ([5]; 0.0001 µM): -0.0027; increase in dead-cell fraction ([5]; 0.0003162 µM): 0.0028; increase in dead-cell fraction ([5]; 0.001 µM): -0.0004; increase in dead-cell fraction ([5]; 0.003162 µM): 0.0013; increase in dead-cell fraction ([5]; 0.01 µM): -0.0036; increase in dead-cell fraction ([5]; 0.03162 µM): 0.0009; increase in dead-cell fraction ([5]; 0.1 µM): 0.0019; increase in dead-cell fraction ([5]; 0.3162 µM): 0.0013; increase in dead-cell fraction ([5]; 1 µM): 0.151; increase in dead-cell fraction ([6]; 0.001 µM): 0.0021; increase in dead-cell fraction ([6]; 0.003162 µM): 0.0092; increase in dead-cell fraction ([6]; 0.01 µM): 0.0198; increase in dead-cell fraction ([6]; 0.03162 µM): 0.0185; increase in dead-cell fraction ([6]; 0.1 µM): 0.014; increase in dead-cell fraction ([6]; 0.3162 µM): 0.0125; increase in dead-cell fraction ([6]; 1 µM): 0.0157; increase in dead-cell fraction ([6]; 3.162 µM): 0.0241; increase in dead-cell fraction ([6]; 10 µM): 0.0249; increase in dead-cell fraction ([7]; 0.0003162 µM): -0.0059; increase in dead-cell fraction ([7]; 0.001 µM): -0.0002; increase in dead-cell fraction ([7]; 0.003162 µM): -0.0001; increase in dead-cell fraction ([7]; 0.01 µM): -0.0032; increase in dead-cell fraction ([7]; 0.03162 µM): -0.0037; increase in dead-cell fraction ([7]; 0.1 µM): -0.0037; increase in dead-cell fraction ([7]; 0.3162 µM): 0; increase in dead-cell fraction ([7]; 1 µM): 0.0004; increase in dead-cell fraction ([7]; 3.162 µM): 0.001; increase in dead-cell fraction ([8]; 0.001 µM): 0.001; increase in dead-cell fraction ([8]; 0.003162 µM): 0.0005; increase in dead-cell fraction ([8]; 0.01 µM): 0.0005; increase in dead-cell fraction ([8]; 0.03162 µM): -0.0023; increase in dead-cell fraction ([8]; 0.1 µM): 0.0065; increase in dead-cell fraction ([8]; 0.3162 µM): 0.0036; increase in dead-cell fraction ([8]; 1 µM): 0.0073; increase in dead-cell fraction ([8]; 3.162 µM): 0.0082; increase in dead-cell fraction ([8]; 10 µM): 0.0077; increase in dead-cell fraction ([9]; 0.0001 µM): -0.0019; increase in dead-cell fraction ([9]; 0.0003162 µM): -0.0035; increase in dead-cell fraction ([9]; 0.001 µM): 0.0015; increase in dead-cell fraction ([9]; 0.003162 µM): 0.0014; increase in dead-cell fraction ([9]; 0.01 µM): -0.0008; increase in dead-cell fraction ([9]; 0.03162 µM): -0.0022; increase in dead-cell fraction ([9]; 0.1 µM): 0.0001; increase in dead-cell fraction ([9]; 0.3162 µM): 0.0129; increase in dead-cell fraction ([9]; 1 µM): 0.144; increase in dead-cell fraction ([10]; 0.0001 µM): -0.0022; increase in dead-cell fraction ([10]; 0.0003162 µM): -0.0022; increase in dead-cell fraction ([10]; 0.001 µM): 0.0059; increase in dead-cell fraction ([10]; 0.003162 µM): -0.0001; increase in dead-cell fraction ([10]; 0.01 µM): 0.002; increase in dead-cell fraction ([10]; 0.03162 µM): 0.0035; increase in dead-cell fraction ([10]; 0.1 µM): 0.0005; increase in dead-cell fraction ([10]; 0.3162 µM): 0.0111; increase in dead-cell fraction ([10]; 1 µM): 0.0673; increase in dead-cell fraction ([11]; 0.0003162 µM): -0.0023; increase in dead-cell fraction ([11]; 0.001 µM): -0.0015; increase in dead-cell fraction ([11]; 0.003162 µM): -0.0035; increase in dead-cell fraction ([11]; 0.01 µM): 0.0001; increase in dead-cell fraction ([11]; 0.03162 µM): 0.002; increase in dead-cell fraction ([11]; 0.1 µM): -0.0025; increase in dead-cell fraction ([11]; 0.3162 µM): 0.0083; increase in dead-cell fraction ([11]; 1 µM): 0.008; increase in dead-cell fraction ([11]; 3.162 µM): 0.0189; increase in dead-cell fraction ([12]; 0.001 µM): -0.0037; increase in dead-cell fraction ([12]; 0.003162 µM): -0.0033; increase in dead-cell fraction ([12]; 0.01 µM): -0.0001; increase in dead-cell fraction ([12]; 0.03162 µM): -0.0011; increase in dead-cell fraction ([12]; 0.1 µM): 0.0026; increase in dead-cell fraction ([12]; 0.3162 µM): -0.0001; increase in dead-cell fraction ([12]; 1 µM): 0.0048; increase in dead-cell fraction ([12]; 3.162 µM): 0.004; increase in dead-cell fraction ([12]; 10 µM): 0.0165
